From article PMC12114375, “Discovery of Hydrazineyl Amide Derivative of Pseudolaric Acid B for Reprogramming Tumor-Associated Macrophages Against Tumor Growth” (Molecules, 2025)

System: M2-like polarization of BMDMs (CD206, CD86)
Assay: Macrophage phenotype analysis by flow cytometry (CD206, CD86) in BMDMs
Type: cell-based, mouse
Conditions: CSF-1-differentiated BMDMs, IL-4 and IL-13, 48 h, different concentrations
Procedure: We also extended the test to primary murine macrophages derived from bone marrow (BMDMs), which were cultured in vitro with recombinant mouse M-CSF for 6 days. The BMDMs were then stimulated with IL-4/IL-13, leading to their transformation into M2-like pro-tumoral macrophages. This transformation was characterized by an increase in both ARG1 and CD206 expression and a decrease in both NOS2 and MHC II expression. […] Subsequently, we assessed the capacity of compound 12 to inhibit the M2-like polarization of macrophages using CSF-1-differentiated mouse BMDMs. These cells were treated with IL-4 and IL-13 for 48 h, and the expression levels of CD206, an M2-type marker, and CD86, an M1-type marker, were analyzed via flow cytometry. […]
BMDMs were collected and stained with a fluorescent antibody or the matching isotype controls for 30 min at room temperature and then tested using a BD CytoFLEX LX (Beckman, CA, USA). […] Data were analyzed using FlowJo10.4 software.
Figure 2 Compound 12 inhibits the M2-like polarized phenotype of macrophages. […] The expression levels of the markers CD206 and CD86 on induced macrophages were determined by flow cytometry, and the mean fluorescence intensity (MFI) was analyzed with FlowJo (C), or the cells were lysed and immunoblotted to detect the indicated proteins (D). […]

`COC(=O)C1=CC[C@@]23CC[C@@H]([C@@](C)(/C=C/C=C(\C)C(=O)NNCCO)OC2=O)[C@@]3(OC(C)=O)CC1` [compound 12, Methyl(3R,4S,4aS,9aR)-4a-acetoxy-3-((1E,3E)-5-(2-(2-hydroxyethyl)hydrazineyl)-4-methyl-5-oxopenta-1,3-dien-1-yl)-3-methyl-1-oxo-3,4,4a,5,6,9-hexahydro-1H-4,9a-ethanocyclohepta[c]pyran-7-carboxylate] was tested, and the “CD86 expression (MFI, flow cytometry)” value was “increase in CD86 expression” and the “CD206 expression (MFI, flow cytometry)” value was “decrease in CD206 expression”.
